Experiment: Solubility in DMSO or in DMSO and water
Settings: isolates

## CCCCCc1cc(O)c2c(c1)OC(C)(C)[C@@H]1CCC(C)=C[C@@H]21 [THC, tetrahydrocannabinol]
  solubility in DMSO: soluble in DMSO
